Results published in patent US8969312B2, “Low side effect pharmaceutical composition containing antituberculosis drugs” (priority 2011, dated 2015).

target: cytochrome P450 2E1 (CYP2E1) (Homo sapiens, UniProt P05181); experiment: CYP2E1 High Throughput Inhibitor Screening Kit, cDNA synthesized microsomal CYP2E1 (MFC to HFC); details: Table 3; minimum tested concentration (mg/L) × volume of human liver and intestine (3L)
Text: CYP2E1 High Throughput Inhibitor Screening Kit (BD Bioscience, USA) was used to screen the cytochrome P450 (CYP2E1) inhibitors from 22 Chinese medicine guiding drugs and 10 excipients and microsomal cytochrome P450 (CYP2E1) was synthesized from cDNA (BD Bioscience, USA). The principle of the screening kit is to measure the percentage of CYP2E inhibition, after adding the test sample to substrate MFC (7-Methoxy-4-trifluoromethyl coumarin) and cytochrome P450 (CYP2E1), by measuring the synthesis of standard CYP2E1 metabolite (HFC, 7-Hydroxy-4-trifluoromethyl coumarin) and use control HFC as baseline.
a. 149 μl NADPH-Cofactor Mix and 1 μl 20 mM DDTC were added to the #1 well in a 96-well plate and mixed thoroughly,
b. Add 100 μl Cofactor/acetonitrile mix to #2 to #12 wells, and well #1 to #8 are positive control. Well #9 and 10 are control and well #11 and #12 are blank,
c. […] Preparation of Experimental Groups: a. […] Transfer 50 μl from well #1 and #2 and added to well #3 and mixed thoroughly (triplicate for each sample), 3. Initiation and Termination of the Reaction: a. The 96-well plate was incubated at 37° C. for […], b. 100 μl of Enzyme/Substrate Mix was added to every well and mixed thoroughly except the blank wells, c. The 96-well plate was incubated at 37° C. for 40 min, d. 75 μl Stop Solution was added to every well and mixed thoroughly, e. Immediately add 100 μl Enzyme/Substrate Mix to blank wells and mixed thoroughly, f. Measure with a Fluoroskan Ascent FL (Thermo Electron Corporation, Finland) with excitation at 405 nm and emission at 538 nm, 4. The fluorescence was transverse into CYP 2E1 metabolite standard (HFC) concentration (pmol) and the percentage (%) of CYP 2E1 inhibition was calculated using control as baseline by following equation: […]

cytochrome P450 2E1 (CYP2E1), sequence (P05181 whole entry): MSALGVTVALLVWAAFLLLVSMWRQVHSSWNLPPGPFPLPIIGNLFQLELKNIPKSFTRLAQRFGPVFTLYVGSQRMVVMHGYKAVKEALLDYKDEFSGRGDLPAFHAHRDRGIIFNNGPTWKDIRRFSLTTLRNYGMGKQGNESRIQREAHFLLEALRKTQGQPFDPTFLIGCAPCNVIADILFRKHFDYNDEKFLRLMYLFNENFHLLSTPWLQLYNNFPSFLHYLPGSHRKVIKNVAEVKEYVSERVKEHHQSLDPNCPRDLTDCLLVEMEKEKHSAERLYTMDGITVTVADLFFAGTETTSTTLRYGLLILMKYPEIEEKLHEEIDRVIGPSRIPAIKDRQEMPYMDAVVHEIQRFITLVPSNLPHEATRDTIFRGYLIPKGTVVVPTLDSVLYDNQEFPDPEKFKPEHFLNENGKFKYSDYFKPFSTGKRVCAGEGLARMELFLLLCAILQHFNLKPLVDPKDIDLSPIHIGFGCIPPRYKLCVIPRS

Row | SMILES | Minimum Effective Dose
1 | O=C(O)c1cc(O)c(O)c(O)c1 [gallic acid] | 9 mg
2 | O=c1ccc2ccc(O)cc2o1 [Umbelliferone] | 9 mg
3 | O=C1c2c(O)cc(O)cc2O[C@H](c2ccc(O)c(O)c2)[C@H]1O [(+)-Taxifolin] | 17 mg
4 | O=C(O)c1ccc(O)c(O)c1 [Protocatechuic acid] | 8 mg
5 | O=C1C[C@@H](c2ccc(O)cc2)Oc2cc(O)cc(O)c21 [Narigenin] | 9 mg

tested on: amidase; experiment: Mouse liver microsomal amidase, isoniazid to isonicotinic acid; format: biochemical; details: 1 uM
Text: Mouse liver microsomes were used as the source of amidase, and isoniazid was used as the amidase metabolism drugs. quantitative isoniazid was catalyzed into metabolites isonicotinic acid (INA) by amidase, and was used as the index for measurement of the amidase activity for establishment of the platform for screening in vitro amidase activity inhibitors. The HPLC system includes a Shimadzu the LC-LOAD pump, 1 Shimadzu system control and a Shimadzu autosampler (Shimadzu Scientific Instrument, Japan). A C18 column (particle size 5 μm, inner diameter of 50×4.6 mm, 25 cm) containing 70% methanol and 30% ammonium formate (50 mM, pH=2.5) of the mobile phase for HPLC separation, and the experimental steps are outlined as follows:
(2) An aliquot of 150 μL mouse liver microsomal solution was added to 100 μL isoniazid solution in 35 μL 67 mM potassium phosphate buffer solution ([…], pH=7) with a final concentration at 3 mM, and then mixed thoroughly with 15 μL amidase inhibitor (deionized water was added in the control group). (3) Incubation at 37° C. water bath for 30 minutes. (4) An aliquot of 300 μL acetonitrile (ACN) was added and mixed thoroughly, and incubated for 6 minutes. (5) An aliquot of 30 μL perchloric acid was then mixed and incubated for 6 minutes. (6) The mixture was centrifuged at 13000 g for 6 minutes. (7) After centrifugation, 100 μL of the supernatant was injected into HPLC. (8) Methanol ammonium formate (50 mM, pH=2.5)=70:30 (V/V) was selected as the mobile phase, and the flow rate was controlled at […] and detected at 270 nm UV. […] The amidase inhibition % was then calculated using the following formula: […]

Row | SMILES | Amidase inhibition
6 | O=C(O)c1cc(O)c(O)c(O)c1 [gallic acid] | 12.0 ± 5.5%
7 | O=c1ccc2ccc(O)cc2o1 [Umbelliferone] | 24.1 ± 11.6%
8 | O=C1c2c(O)cc(O)cc2O[C@H](c2ccc(O)c(O)c2)[C@H]1O [(+)-Taxifolin] | 36.8 ± 11.5%
9 | O=C(O)c1ccc(O)c(O)c1 [Protocatechuic acid] | 11.5 ± 4.0%

same assay, conditions: 10 uM

Row | SMILES | Amidase inhibition
10 | O=C(O)c1cc(O)c(O)c(O)c1 [gallic acid] | 20.0 ± 5.1%
11 | O=c1ccc2ccc(O)cc2o1 [Umbelliferone] | −1.0 ± 13.2%
12 | O=C1c2c(O)cc(O)cc2O[C@H](c2ccc(O)c(O)c2)[C@H]1O [(+)-Taxifolin] | 32.2 ± 5.8%
13 | O=C(O)c1ccc(O)c(O)c1 [Protocatechuic acid] | 10.9 ± 2.0%

same assay, conditions: 100 uM

Row | SMILES | Amidase inhibition
14 | O=C(O)c1cc(O)c(O)c(O)c1 [gallic acid] | −20.2 ± 26.5%
15 | O=c1ccc2ccc(O)cc2o1 [Umbelliferone] | 33.5 ± 8.2%
16 | O=C1c2c(O)cc(O)cc2O[C@H](c2ccc(O)c(O)c2)[C@H]1O [(+)-Taxifolin] | 36.4 ± 3.4%
17 | O=C(O)c1ccc(O)c(O)c1 [Protocatechuic acid] | 15.7 ± 8.1%

tested on: Male SD (Sprague-Dawley) rats; experiment: Rat study of PZA combined with BNPP (AST, ALT, histology, GSP); format: in vivo; details: i.p. daily 49 days, PZA 500 mg/kg, BNPP 50 mg/kg
Experimental: The body weight of the rats was monitored throughout the experiment. Rats were anesthetized with sodium pentobarbital intraperitoneally (i.p.) at the dose of 50 mg/kg and galactose was injected intravenously through a polyethylene catheter positioned in internal jugular vein. The catheter was positioned by cut-down technique and its end was embedded under the skin behind the neck. After the surgery, the rats were fasted overnight during the recovery period (about 16 hours) with unrestricted water access.
Animals were randomized into one of five groups, each involving three treatments. The first treatment involved either a BNPP injection of 50 mg/kg or a BNPP vehicle (VEH1) injection (saline). […] The second treatment involved injections of either 500 mg/kg PZA or PZA vehicle (VEH2, saline). PZA was dissolved in saline and i.p. injected at a volume of […]. The first treatment (BNPP or VEH1) was administered 15 minutes before the […].
2. PZA group (PZA, n=10): continuously injections of PZA, VEH1 and VEH2 intraperitoneally once every day for 49 days;
3. BNPP-PZA group (BNPP-PZA, n=10): continuously injections of BNPP, PZA and VEH2 intraperitoneally once every day for 49 days;
After the rats were sacrificed, the livers were subjected to histology analysis.
All rats were subjected to GSP tests.

Row | SMILES | plasma ALT activities | plasma AST activities
18 | NC(=O)c1cnccn1 [PZA, pyrazinamide] | 91±11 IU/L | 179±10 IU/L

same assay, conditions: seven weeks, in words

Row | SMILES | liver histopathology
19 | NC(=O)c1cnccn1 [PZA, pyrazinamide] | showed hepatocellular damage

tested on: 129/sv mice; experiment: Mouse study of INH/RIF with oral Kaempferol, Mannitol, Saccharin, Sucralose, Dicalcium phosphate or Crospovidone; format: in vivo; details: 3 weeks, in words
Text: Animals were randomized into one of thirteen groups, each involving three treatments. […].
All mice were subjected to GSP test.

Row | SMILES | GSP values over treatment time
20 | OC[C@H]1O[C@H](O[C@]2(CCl)O[C@H](CCl)[C@@H](O)[C@@H]2O)[C@H](O)[C@@H](O)[C@H]1Cl [Sucralose] | remained constant
21 | O=C1NS(=O)(=O)c2ccccc21 [Saccharin] | remained constant

target: CYP2E1 (Homo sapiens, UniProt P05181); experiment: Human liver microsomal CYP2E1, chlorzoxazone 6-hydroxylation; details: human, human liver microsomes, pH 7.4, probe Chlorzoxazone;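 note: chlorzoxazone added as substrate, 6-hydroxychlorzoxazone formation quantified by LC/MS/MS after 30 min at 37 °C with NADP+ regenerating system, compared against solvent control without test sample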
Sequence (P05181 whole entry): as above
Experimental: (§1) Microsomes prepared from human liver were used to extract cytochrome P450 2E1 (CYP2E1) and CYP2E1 inhibitors were screened from 39 Chinese medicine guiding drugs and 10 excipients. Chlorzoxazone hydroxylation is a reaction catalyzed primarily by CYP2E1 in liver. The extracted human liver microsomal cytochrome P450 2E1 (CYP2E1) was mixed with its substrate, Chlorzoxazone, and test sample was then added Inhibition of CYP2E1 activity was calculated by measuring CYP2E1 standard metabolite, 6-OH-CZX (6-Hydroxy-Chlorzoxazone), and compared with control 6-OH-CZX.
(§2) After incubation, 16 mM Chlorzoxazone and test samples were added to experimental groups; methanol:sterilized water at 1:1 ratio was added to control groups and DDTC was added to positive control groups,
(§3) Finally, cofactor 1 mM NADP^+, 10 mM G6P and 2 IU G6PD were added and reaction mixtures were transferred to pre-incubation 37° C. water bath for 1 mM and activity was measured after 30 min of reaction
(§4) At the end of reaction, 500 μl acetonitrile was added to stop the reaction followed by 5 g/mL 4-hydroxy-tobutamide after 1 mM incubation. The mixture was then centrifuged and 20 L of supernatant was diluted ten times with methanol/sterilized water and 5 L was used for LC/MS/MS analysis. […] The inhibition of CYP2E1 was then calculated by the following equation:

Row | SMILES | inhibition at 30 min, 16.5 µM | inhibition at 30 min, 33 µM | inhibition at 30 min, 66 µM
22 | OC[C@H]1O[C@H](O[C@]2(CCl)O[C@H](CCl)[C@@H](O)[C@@H]2O)[C@H](O)[C@@H](O)[C@H]1Cl [Sucralose] | 37.1 ± 2.8% | 45.8 ± 4% | 55.8 ± 2%
23 | O=C1NS(=O)(=O)c2ccccc21 [Saccharin] | 29.4 ± 2.7% | 51.2 ± 0.9% | 78.5 ± 2.1%

target: human liver microsomal cytochrome P450 2E1 (CYP2E1) (Homo sapiens, UniProt P05181); experiment: as above; details: Table 6; minimum tested concentration (mg/L) × volume of human liver and intestine (3 L)
Sequence (P05181 whole entry): as above
Experimental: as §1, §2, §3, §4

Row | SMILES | Minimum Effective Dose
24 | O=C(O)c1cc(O)c(O)c(O)c1 [gallic acid] | 9 mg
25 | O=C1C[C@@H](c2ccc(O)cc2)Oc2cc(O)cc(O)c21 [Narigenin] | 9 mg

same assay, conditions: Table 7

Row | SMILES | Minimum Effective Dose
26 | OC[C@H]1O[C@H](O[C@]2(CCl)O[C@H](CCl)[C@@H](O)[C@@H]2O)[C@H](O)[C@@H](O)[C@H]1Cl [Sucralose] | 22 mg
27 | O=C1NS(=O)(=O)c2ccccc21 [Saccharin] | 10 mg
